Experimental data from patent US9440964B2, “Pesticidal compositions and processes related thereto” (Dow AgroSciences LLC, priority 2011, dated 2016).
Like-named read-outs stand apart in the source and are kept apart here.

How the values were obtained:
Type in all cases: in vivo
[1] = tested on: Yellow Fever Mosquito YFM (Aedes aegypti); assay: Bioassay on Yellow Fever Mosquito (YFM) larvae, 96-well plate; conditions: mortality of about 1 day-old larvae, scored after 3 days
Experimental: Certain molecules disclosed in this document were tested against YFM using procedures described in the following paragraph. In the reporting of the results, the “YFM Rating Table” was used (See Table Section).
Master plates containing 400 μg of a molecule dissolved in 100 μL of dimethyl sulfoxide (DMSO) (equivalent to a 4000 ppm solution) are used. A master plate of assembled molecules contains 15 μL per well. To this plate, 135 μL of a 90:10 water:acetone mixture is added to each well. A robot (Biomek® NXP Laboratory Automation Workstation) is programmed to dispense 15 μL aspirations from the master plate into an empty 96-well shallow plate (“daughter” plate). There are 6 reps (“daughter” plates) created per master. The created daughter plates are then immediately infested with YFM larvae.
The day before plates are to be treated, mosquito eggs are placed in Millipore water containing liver powder to begin hatching (4 g. into 400 ml). After the daughter plates are created using the robot, they are infested with 220 μL of the liver powder/larval mosquito mixture (about 1 day-old larvae). After plates are infested with mosquito larvae, a non-evaporative lid is used to cover the plate to reduce drying. Plates are held at room temperature for 3 days prior to grading. After 3 days, each well is observed and scored based on mortality.
(§1) The results are indicated in the table entitled “Table ABC: Biological Results” (See Table Section).

[2] = tested on: CEW (Helicoverpa zea); assay: Bioassay on Corn Earworm (CEW), 128-well diet tray; conditions: Helicoverpa zea, 168 h, read-out: Rating CEW
How it was run: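 Helicoverpa zea (corn earworm) was tested in a 128-well diet tray. Each 3 mL well received one to five second instar larvae on diet treated with the test material in an acetone-water mixture, applied to eight wells and dried. Trays were sealed with clear self-adhesive covers, kept at 25° C., 14:10 light-dark for five to seven days, then percent mortality was averaged across eight wells.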

[3] = tested on: BAW (Spodoptera exigua); assay: Bioassay on Beet Armyworm (BAW), 128-well diet tray; conditions: Spodoptera exigua, 168 h, read-out: Rating BAW
How it was run: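 Second-instar Spodoptera exigua larvae (one to five per well) placed on artificial diet surface-treated with 50 μg/cm^2 compound in 90:10 acetone-water, dried, eight wells per compound. Held 5–7 days at 25 °C, 14:10 light-dark; percent mortality averaged across wells.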

[4] = tested on: Green Peach Aphid (GPA) (Myzus persica); assay: Bioassay on Green Peach Aphid (GPA), cabbage seedling foliar spray; conditions: 72 h, read-out: Rating GPA
Experimental: Certain molecules disclosed in this document were tested against GPA using procedures described in the following example. In the reporting of the results, the “GPA Rating Table” was used (See Table Section).
Cabbage seedlings grown in 3-inch pots, with 2-3 small (3-5 cm) true leaves, were used as test substrate. The seedlings were infested with 20-50 GPA (wingless adult and nymph stages) one day prior to chemical application. Four pots with individual seedlings were used for each treatment. Test compounds (2 mg) were dissolved in 2 mL of acetone/MeOH (1:1) solvent, forming stock solutions of 1000 ppm test compound. The stock solutions were diluted 5× with 0.025% Tween 20 in H2O to obtain the solution at 200 ppm test compound. A hand-held aspirator-type sprayer was used for spraying a solution to both sides of […] leaves until runoff. Reference plants (solvent check) were sprayed with the diluent only containing 20% by volume of acetone/MeOH (1:1) solvent. Treated plants were held in a holding room for three days at approximately 25° C. and ambient relative humidity (RH) prior to grading. Evaluation was conducted by counting the number of live aphids per plant under a microscope. Percent Control was measured by using Abbott's correction formula (W. S. Abbott, “A Method of Computing the Effectiveness of an Insecticide” J. Econ. Entomol. 18 (1925), pp. 265-267) as follows. Corrected % Control=100*(X−Y)/X • where • X=No. of live aphids on solvent check plants and • Y=No. of live aphids on treated plants
as §1

[5] = percent mortality, second instar larvae, 50 μg/cm^2 on diet, five to seven days
[6] = corrected % control (Abbott), 200 ppm foliar spray on cabbage, three days

Structure (SMILES)	Rating YFM [1]	pest or weed control at 50 µg/cm2 [2, 5]	pest or weed control at 50 µg/cm2 [3, 5]	pest or weed control at 200 ppm [4, 6]	pest or weed control at 50 µg/cm2 [2]	pest or weed control at 50 µg/cm2 [3]	pest or weed control at 200 ppm ([4]; foliar)
CCc1ccccc1N/C(S)=N/C(=O)Nc1ccc(-c2ncn(-c3ccc(OC(F)(F)F)cc3)n2)cc1 [Molecule A46]	A (80-100)	50 to 100%	50 to 100%	0 to 80%	–	–	–
COc1cc(C)c(N2C(=O)CS/C2=N\C(=O)Nc2ccc(-c3ncn(-c4ccc(OC(F)(F)F)cc4)n3)cc2)c(C)c1 [Molecule A44]	A (80-100)	50 to 100%	50 to 100%	0 to 80%	–	–	–
COc1cc(C)c(N/C(=N/C(=O)Nc2ccc(-c3ncn(-c4ccc(C(F)(F)F)cc4)n3)cc2)SCOC(=O)CNC(=O)OCc2ccccc2)c(C)c1 [Molecule A9, (E)-((N′-(4-Methoxy-2,6-dimethylphenyl)-N-((4-(1-(4-(trifluoromethyl)phenyl)-1H-1,2,4-triazol-3-yl)phenyl)carbamoyl)carbamimidoyl)thio)methyl 2-(((benzyloxy)carbonyl)amino)acetate]	–	–	–	–	50 to 100%	50 to 100%	0 to 80%
COc1cc(C)c(N/C(=N/C(=O)Nc2ccc(-c3ncn(-c4ccc(OC(F)(F)F)cc4)n3)cc2)SCOC(=O)C(C)C)c(C)c1 [Molecule A7, (E)-(N′-(2,6-Dimethyl-4-methoxyphenyl)-N-(4-(1-(4-(trifluoromethyoxy)phenyl)-1H-1,2,4-triazol-3-yl)phenylcarbamoyl)carbamimidoylthio)methyl isobutyrate]	–	50 to 100%	50 to 100%	0 to 80%	–	–	–
Cc1cccc(C)c1N/C(=N/C(=O)Nc1ccc(-c2ncn(-c3ccc(OC(F)(F)F)cc3)n2)cc1)SCOC(=O)C(C)C [Molecule A4, (E)-(N′-(2,6-Dimethylphenyl)-N-(4-(1-(4-(trifluoromethyoxy)phenyl)-1H-1,2,4-triazol-3-yl)phenylcarbamoyl)carbamimidoylthio)methyl isobutyrate]	A (80-100)	50 to 100%	50 to 100%	0 to 80%	–	–	–
Cc1cccc(C)c1N/C(S)=N/C(=O)Nc1ccc(-c2ncn(-c3ccc(OC(F)(F)F)cc3)n2)cc1 [Molecule A11]	–	50 to 100%	50 to 100%	0 to 80%	–	–	–
Cc1cccc(C)c1N/C(=N/C(=O)Nc1ccc(-c2ncn(-c3ccc(C(F)(F)F)cc3)n2)cc1)SCOC(=O)C(C)C [Molecule A3, (E)-(N′-(2,6-Dimethylphenyl)-N-(4-(1-(4-(trifluoromethyl)phenyl)-1H-1,2,4-triazol-3-yl)phenylcarbamoyl)carbamimidoylthio) methyl isobutyrate]	A (80-100)	50 to 100%	50 to 100%	–	–	–	–
Cc1cccc(C)c1N1C(=O)CS/C1=N\C(=O)Nc1ccc(-c2ncn(-c3ccc(OC(F)(F)F)cc3)n2)cc1 [Molecule A14, (Z)-1-(3-(2,6-dimethylphenyl)-4-oxothiazolidin-2-ylidene)-3-(4-(1-(4-(trifluoromethoxy)phenyl)-1H-1,2,4-triazol-3-yl)phenyl)urea]	A (80-100)	50 to 100%	50 to 100%	0 to 80%	–	–	–
COc1ccc(N/C(O)=C/C(=O)Nc2ccc(-c3ncn(-c4ccc(OC(F)(F)F)cc4)n3)cc2)c(C)c1 [Molecule A33, (Z)-3-hydroxy-3-(4-methoxy-2-methylphenylamino)-N-(4-(1-(4-(trifluoromethoxy)phenyl)-1H-1,2,4-triazol-3-yl)phenyl)acrylamide]	–	50 to 100%	50 to 100%	0 to 80%	–	–	–
